Each compound was assayed on HCV (assay: Cell-based HCV infection NS3 protease FRET assay in DMSO-Huh7 cells). Conditions: not given.
Design: species or system hepatitis C virus (HCV)
Also: test concentration or dose not given here.

SMILES | Ave % inhibition
C[C@@H]1CC[C@@H]2[C@@H](O)[C@H](O)[C@@H](CO)N12 [Compound 14, (1R,2R,3R,5R,7aR)-3-(hydroxymethyl)-5-methylhexahydro-1H-pyrrolizine-1,2-diol] | + (+: ≦19%)
[O-][N@@+]12C[C@H](O)[C@H](O)[C@@H]1[C@@H](O)[C@H](O)[C@@H]2CO [Compound 81, (1R,2R,3S,4R,6S,7R,7aR)-1,2,6,7-tetrahydroxy-3-(hydroxymethyl)octahydropyrrolizine 4-oxide] | ++ (++: 20-39%)
C[C@H]1C[C@@H](O)[C@@H]2[C@H](O)[C@H](O)[C@@H](CO)N21 [Compound 149, (1S,2R,3R,5S,7R,7aR)-3-(hydroxymethyl)-5-methylhexahydro-1H-pyrrolizine-1,2,7-triol] | ++ (++: 20-39%)
OC[C@@H](O)[C@@H]1NC[C@H](O)[C@@H]1O [Compound 155, (2S,3R,4S)-2-((S)-1,2-dihydroxyethyl)pyrrolidine-3,4-diol] | ++ (++: 20-39%)
O=C(O)[C@H]1C[C@H](O)CN1 [Compound 477, trans-4-Hydroxy-D-proline] | + (+: ≦19%)

Same assay, conditions: DMSO-Huh7 cells infected with HCV at 0.05 ffu/cell; HCV NS3 protein levels by FRET, day 6 p.i.

SMILES | Ave % inhibition
OC[C@H]1N[C@H](CO)[C@@H](O)[C@H](O)[C@H]1O [Compound 15, (2R,3S,4R,5R,6R)-2,6-bis(hydroxymethyl)piperidine-3,4,5-triol] | ++ (++: 20-39%)
CCCC(=O)O[C@H]1CN2CC[C@H](O)C2[C@@H](O)[C@@H]1O (stereo partly drawn) [Compound 46, (1S,6S,7S,8R)-1,7,8-trihydroxyoctahydroindolizin-6-yl butyrate] | ++ (++: 20-39%)
CC[C@@H]1NC[C@@H](O)[C@H](O)[C@H]1O [Compound 72, (2S,3S,4S,5R)-2-ethylpiperidine-3,4,5-triol] | ++ (++: 20-39%)
O=C(O)[C@@]1(O)CNC[C@@H](O)[C@H]1O [Compound 87, (3R,4R,5R)-3,4,5-trihydroxypiperidine-3-carboxylic acid] | +++ (+++: 40-59%)
CCCCN1C[C@H](O)[C@@H](O)[C@H](O)[C@H]1CO [Compound 118, (2R,3R,4R,5S)-1-butyl-2-(hydroxymethyl)piperidine-3,4,5-triol] | ++ (++: 20-39%)
C[C@H]1N[C@@H](CO)[C@H](O)[C@H]1O [Compound 119, (2S,3S,4S,5R)-2-(hydroxymethyl)-5-methylpyrrolidine-3,4-diol] | ++ (++: 20-39%)
CCCC(=O)OC[C@@H]1[C@@H](OC(=O)CCC)[C@H](OC(=O)CCC)[C@H]2[C@H](OC(=O)CCC)[C@@H](OC(=O)CCC)CN21 [Compound 132, (1R,2R,3R,6S,7S,7aR)-3-(butyryloxymethyl)hexahydro-1H-pyrrolizine-1,2,6,7-tetrayl tetrabutyrate] | ++ (++: 20-39%)
CC(=O)OC[C@H]1[C@@H](OC(C)=O)[C@H](OC(C)=O)[C@H]2[C@H](OC(C)=O)[C@@H](OC(C)=O)CN21 [Compound 136, (1R,2R,3S,6S,7S,7aR)-3-(acetoxymethyl)hexahydro-1H-pyrrolizine-1,2,6,7-tetrayl tetraacetate] | ++ (++: 20-39%)
CC(=O)OC[C@H]1[C@@H](OC(C)=O)[C@H](OC(C)=O)[C@H]2[C@@H](OC(C)=O)[C@@H](OC(C)=O)CN21 [Compound 144, (1R,2R,3S,6S,7R,7aR)-3-(acetoxymethyl)hexahydro-1H-pyrrolizine-1,2,6,7-tetrayl tetraacetate] | ++ (++: 20-39%)
OCCN1C[C@@H](O)[C@@H](O)[C@H]1[C@H](O)CO [Compound 145, (2R,3S,4R)-2-((S)-1,2-dihydroxyethyl)-1-(2-hydroxyethyl)pyrrolidine-3,4-diol] | +++ (+++: 40-59%)
O[C@@H]1[C@@H]2[C@@H](O)CCCN2C[C@@H]1O [Compound 153, (1R,2S,8S,8aS)-octahydroindolizine-1,2,8-triol] | ++ (++: 20-39%)
CCCCN1C[C@H](O)[C@H](O)[C@@H]1CO [Compound 162, (2S,3R,4S)-1-butyl-2-(hydroxymethyl)pyrrolidine-3,4-diol] | ++ (++: 20-39%)
CCCCN1C[C@@H](N=[N+]=[N-])C[C@H]1CO [Compound 275, ((2S,4S)-4-azido-1-butylpyrrolidin-2-yl)methanol] | ++ (++: 20-39%)
CCCCCCCCCN1C[C@@H](O)[C@@H](O)[C@@H]1[C@@H](O)CO [Compound 316, (2S,3S,4R)-2-((R)-1,2-dihydroxyethyl)-1-nonylpyrrolidine-3,4-diol] | +++ (+++: 40-59%)
CCCCCCCCCN1C[C@H](NC(C)=O)[C@@H](O)[C@@H]1CO [Compound 338, N-((3S,4R,5S)-4-hydroxy-5-(hydroxymethyl)-1-nonylpyrrolidin-3-yl)acetamide] | ++ (++: 20-39%)
CCCCCCCCCN1C[C@@H](NC(C)=O)C[C@H]1CO [Compound 348, N-((3S,5S)-5-(hydroxymethyl)-1-nonylpyrrolidin-3-yl)acetamide] | ++++ (++++: 60-79%)
CCCCCCCCCN1C[C@H](O)[C@H](O)[C@@H]1[C@@H](O)[C@H](O)CO [Compound 404, (1R,2R)-1-((2R,3R,4S)-3,4-dihydroxy-1-nonylpyrrolidin-2-yl)propane-1,2,3-triol] | +++ (+++: 40-59%)
CCCCCCCCCN1C[C@@H](O)[C@@H](O)[C@@H]1[C@H](O)CO [Compound 427, (2S,3S,4R)-2-((S)-1,2-dihydroxyethyl)-1-nonylpyrrolidine-3,4-diol] | +++ (+++: 40-59%)
CC1(C)O[C@H]2[C@H](CN(Cc3ccccc3)[C@@H]2CN)O1 [Compound 483, ((3aR,4R,6aS)-5-benzyl-2,2-dimethyltetrahydro-3aH-[1,3]dioxolo[4,5-c]pyrrol-4-yl)methanamine] | ++ (++: 20-39%)
O=C(O)CCCN1C[C@@H](O)[C@H](O)[C@H]1CO [Compound 499, 4-[(2R,3R,4R)-3,4-dihydroxy-2-(hydroxymethyl)pyrrolidin-1-yl]butanoic acid] | ++ (++: 20-39%)
OC[C@H]1[C@H](O)[C@@H](O)CN1Cc1ccccc1 [Compound 500, (2S,3S,4S)-1-benzyl-2-(hydroxymethyl)pyrrolidine-3,4-diol] | ++ (++: 20-39%)
C[C@@]1(C(=O)O)NC[C@H](O)[C@H]1O [Compound 504, (2R,3S,4S)-3,4-dihydroxy-2-methylpyrrolidine-2-carboxylic acid] | ++ (++: 20-39%)
[N-]=[N+]=NC[C@H]1[C@@H](O)[C@@H](O)CN1Cc1ccccc1 [Compound 506, (2S,3R,4S)-2-(azidomethyl)-1-benzylpyrrolidine-3,4-diol] | +++ (+++: 40-59%)
CC(=O)NC[C@@H]1[C@@H](O)[C@@H](O)CN1CCCCCCCCCO [Compound 511, N-(((2R,3R,4S)-3,4-dihydroxy-1-(9-hydroxynonyl)pyrrolidin-2-yl)methyl)acetamide] | ++ (++: 20-39%)
CCCCCCCCCN1C[C@H](O)[C@H](O)[C@H]1CNC(C)=O [Compound 512, N-(((2R,3R,4S)-3,4-dihydroxy-1-nonylpyrrolidin-2-yl)methyl)acetamide] | +++ (+++: 40-59%)
O=C(O)CN1C[C@H](O)[C@H](O)[C@@H]1[C@@H](O)[C@H](O)[C@H](O)CO [Compound 530, 2-((2R,3R,4S)-3,4-dihydroxy-2-((1R,2S,3R)-1,2,3,4-tetrahydroxybutyl)pyrrolidin-1-yl)acetic acid] | ++ (++: 20-39%)

— patent publication US20110195929A1, “COMPOUNDS FOR THE TREATMENT OF FLAVIVIRAL INFECTIONS” (SUMMIT CORPORATION PLC, priority 2008, published 2011)
